Laboratory results reported in ChEMBL document CHEMBL2010725, “Synthesis and Cardiac Imaging of (18)F-Ligands Selective for β1-Adrenoreceptors” (ACS Med Chem Lett, 2011).

Key:
[1] = molecular target: Beta-1 adrenergic receptor (Homo sapiens, UniProt P08588); assay: Displacement of [3H](-)-CGP-12177 from adrenergic beta1 receptor by cell based assay
[2] = Selectivity ratio of IC50 for adrenergic beta2 receptor to IC50 for adrenergic beta1 receptor
[3] = tested on: Liver; assay: Biodistribution in Sprague-Dawley rat liver at 15 uCi after 30 mins by gamma counting; type: ADME, organism-based; conditions: in vivo, 0.5 h
[4] = tested on: Heart; assay: Biodistribution in Sprague-Dawley rat heart at 15 uCi after 30 mins by gamma counting; type: ADME, organism-based; conditions: in vivo, 0.5 h
[5] = tested on: Blood; assay: Biodistribution in Sprague-Dawley rat blood at 15 uCi after 30 mins by gamma counting; type: ADME, organism-based; conditions: in vivo, 0.5 h
[6] = tested on: Muscle tissue; assay: Biodistribution in Sprague-Dawley rat muscle at 15 uCi after 30 mins by gamma counting; type: ADME, organism-based; conditions: in vivo, 0.5 h
[7] = Drug uptake in Sprague-Dawley rat myocardium at 1 mCi after 60 mins by microPET analysis; type: ADME, tissue-based; conditions: in vivo, 1 h
[8] = tested on: Spleen; assay: Biodistribution in Sprague-Dawley rat spleen at 15 uCi after 30 mins by gamma counting; type: ADME, organism-based; conditions: in vivo, 0.5 h
[9] = Drug uptake in Sprague-Dawley rat myocardium at 1 mCi after 30 mins by microPET analysis; type: ADME, tissue-based; conditions: in vivo, 0.5 h
[10] = tested on: Kidney; assay: Biodistribution in Sprague-Dawley rat kidney at 15 uCi after 30 mins by gamma counting; type: ADME, organism-based; conditions: in vivo, 0.5 h
[11] = tested on: Liver; assay: Drug uptake in Sprague-Dawley rat liver at 1 mCi after 30 mins by microPET analysis; type: ADME, tissue-based; conditions: in vivo, 0.5 h
[12] = tested on: Femur; assay: Biodistribution in Sprague-Dawley rat femur at 15 uCi after 30 mins by gamma counting; type: ADME, organism-based; conditions: in vivo, 0.5 h
[13] = Ratio of drug level in lung to heart in Sprague-Dawley rat at 15 uCi after 30 mins by gamma counting; conditions: in vivo, 0.5 h
[14] = tested on: Liver; assay: Drug uptake in Sprague-Dawley rat liver at 1 mCi after 60 mins by microPET analysis; type: ADME, tissue-based; conditions: in vivo, 1 h
[15] = tested on: Lung; assay: Biodistribution in Sprague-Dawley rat lung at 15 uCi after 30 mins by gamma counting; type: ADME, organism-based; conditions: in vivo, 0.5 h
[16] = tested on: Rattus norvegicus; assay: Drug metabolism in rat assessed as progressive loss of parent compound at 1 mCi/kg, iv after 2 mins by HPLC analysis; type: ADME, organism-based; conditions: in vivo
[17] = Drug uptake in Sprague-Dawley rat myocardium after <5 mins by microPET analysis; type: ADME, tissue-based; conditions: in vivo
[18] = tested on: Liver; assay: Drug uptake in Sprague-Dawley rat liver after <5 mins by microPET analysis; type: ADME; conditions: in vivo
[19] = tested on: Rattus norvegicus; assay: Drug metabolism in rat assessed as progressive loss of parent compound at 1 mCi/kg, iv after 30 mins by HPLC analysis; type: ADME, organism-based; conditions: in vivo, 0.5 h
[20] = tested on: Lung; assay: Drug uptake in Sprague-Dawley rat lung after <5 mins by microPET analysis; type: ADME, tissue-based; conditions: in vivo
[21] = Drug excretion in rat urine assessed as parent compound at 1 mCi/kg, iv after 30 mins by HPLC analysis; type: ADME, organism-based; conditions: read-out: Drug excretion

Sequence of Beta-1 adrenergic receptor (P08588 whole entry): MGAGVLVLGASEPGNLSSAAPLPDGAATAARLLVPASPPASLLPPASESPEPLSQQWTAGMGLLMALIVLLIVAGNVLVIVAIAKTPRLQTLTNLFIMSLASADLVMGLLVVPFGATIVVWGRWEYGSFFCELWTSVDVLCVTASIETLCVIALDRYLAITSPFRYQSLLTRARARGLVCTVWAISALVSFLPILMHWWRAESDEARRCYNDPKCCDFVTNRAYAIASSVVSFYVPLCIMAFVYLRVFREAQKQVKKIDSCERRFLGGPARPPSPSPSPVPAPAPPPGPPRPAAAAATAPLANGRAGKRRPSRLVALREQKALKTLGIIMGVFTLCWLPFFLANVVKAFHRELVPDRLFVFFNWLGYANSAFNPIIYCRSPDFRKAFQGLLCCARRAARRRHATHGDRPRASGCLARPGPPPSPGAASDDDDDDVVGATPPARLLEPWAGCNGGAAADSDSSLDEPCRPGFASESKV

Q: Which IC50 [1] does the source give for `N#Cc1ccccc1OC[C@@H](O)CNCCNC(=O)c1ccc(F)nc1` here?
A: 10 nM

Q: What about the Ratio IC50 [2] of the same molecule?
A: 4

Q: Which results are given for `N#Cc1ccccc1OC[C@@H](O)CNCCNC(=O)Nc1nccs1`?
A: IC50 [1]: 26 nM; Ratio IC50 [2]: 8

Q: What does the source list for `N#Cc1ccccc1OC[C@@H](O)CNCCNC(=O)Nc1nnn(CCF)n1`?
A: IC50 [1]: 10 nM; Ratio IC50 [2]: 10

Q: What does the source list for `N#Cc1ccccc1OC[C@@H](O)CNCCNC(=O)Nc1ccc(F)nc1`?
A: IC50 [1]: 0.3 nM; Ratio IC50 [2]: 345

Q: For `CCOc1ccc(NC(=O)NCCNC[C@H](O)COc2cccc(F)c2C#N)cc1`, which IC50 [1] is on record?
A: 2 nM

Q: And the Ratio IC50 [2]?
A: 32

Q: For `N#Cc1ccccc1OC[C@@H](O)CNCCNC(=O)NC1CCN(CCF)CC1`, which IC50 [1] is on record?
A: > 100 nM

Q: What about the Ratio IC50 [2] of the same molecule?
A: 0.05

Q: With `N#Cc1ccccc1OC[C@@H](O)CNCCNC(=O)Nc1ccc(OCC[18F])cc1` as the molecule, how does the Drug uptake [3] read?
A: 1.14 % ID/g

Q: And the Drug uptake [4]?
A: 0.48 % ID/g

Q: And the Drug uptake [5]?
A: 0.18 % ID/g

Q: What about the Drug uptake [6] of the same molecule?
A: 0.08 % ID/g

Q: And the Drug uptake [7]?
A: Not Active

Q: What about the Drug uptake [8] of the same molecule?
A: 0.37 % ID/g

Q: And the Drug uptake [9]?
A: Active

Q: What about the Drug uptake [10] of the same molecule?
A: 1.26 % ID/g

Q: And the Drug uptake [11]?
A: Active

Q: And the Drug uptake [12]?
A: 0.27 % ID/g

Q: What about the Ratio [13] of the same molecule?
A: 2

Q: And the Drug uptake [14]?
A: Not Active

Q: What about the Drug uptake [15] of the same molecule?
A: 0.97 % ID/g

Q: For `N#Cc1ccccc1OC[C@@H](O)CNCCNC(=O)N1CCOCC1`, which IC50 [1] is on record?
A: 20 nM

Q: And the Ratio IC50 [2]?
A: 4

Q: What does the source list for `N#Cc1ccccc1OC[C@@H](O)CNCCNC(=O)Nc1ccc(OCCCF)cc1`?
A: IC50 [1]: 0.25 nM; Ratio IC50 [2]: 65

Q: Which IC50 [1] does the source give for `N#Cc1ccccc1OC[C@@H](O)CNCCNC(=O)Nc1ccccc1F` here?
A: 0.2 nM

Q: And the Ratio IC50 [2]?
A: 69

Q: Which IC50 [1] does the source give for `N#Cc1ccccc1OC[C@@H](O)CNCCNC(=O)Nc1ccc(I)nc1` here?
A: 0.05 nM

Q: What about the Ratio IC50 [2] of the same molecule?
A: 723

Q: Which results are given for `N#Cc1ccccc1OC[C@@H](O)CNCCNS(=O)(=O)c1ccccc1F`?
A: IC50 [1]: 5 nM; Ratio IC50 [2]: 0.1

Q: Which IC50 [1] does the source give for `CC(CF)Nc1ccc(NC(=O)NCCNC[C@H](O)COc2ccccc2C#N)cc1` (stereo partly drawn) here?
A: 1.5 nM

Q: What about the Ratio IC50 [2] of the same molecule?
A: 13

Q: For `N#Cc1ccccc1OC[C@@H](O)CNCCCC(=O)Nc1ccc(F)nc1`, which IC50 [1] is on record?
A: 3 nM

Q: What about the Ratio IC50 [2] of the same molecule?
A: 30

Q: Which results are given for `COc1ccc(NC(=O)NCCNC[C@H](O)COc2ccccc2C#N)cc1`?
A: IC50 [1]: 0.11 nM; Ratio IC50 [2]: 145

Q: Which results are given for `N#Cc1ccccc1OC[C@@H](O)CNCCNC(=O)Nc1ccc(OCCF)nc1`?
A: IC50 [1]: 0.1 nM; Ratio IC50 [2]: 50

Q: For `N#Cc1ccccc1OC[C@@H](O)CNCCNC(=O)Nc1ccc(F)cc1`, which IC50 [1] is on record?
A: 0.1 nM

Q: What about the Ratio IC50 [2] of the same molecule?
A: 150

Q: For `N#Cc1ccc(F)cc1OC[C@@H](O)CNCCNC(=O)Nc1ccc(C(=O)O)cc1`, which IC50 [1] is on record?
A: 2 nM

Q: And the Ratio IC50 [2]?
A: 70

Q: For `N#Cc1ccccc1OC[C@@H](O)CNCCNC(=O)Nc1cnc(Br)cn1`, which IC50 [1] is on record?
A: 0.35 nM

Q: What about the Ratio IC50 [2] of the same molecule?
A: 163

Q: With `N#Cc1ccccc1OC[C@@H](O)CNCCNC(=O)Cc1ccc(F)cc1` as the molecule, how does the IC50 [1] read?
A: 0.14 nM

Q: And the Ratio IC50 [2]?
A: 6

Q: Which results are given for `N#Cc1ccccc1OC[C@@H](O)CNCCNC(=O)Nc1ccc(C(=O)O)c(F)c1`?
A: IC50 [1]: 1 nM; Ratio IC50 [2]: 511

Q: For `N#Cc1ccccc1OC[C@@H](O)CNCCNC(=O)Nc1cccc(OCCF)c1`, which IC50 [1] is on record?
A: 0.04 nM

Q: And the Ratio IC50 [2]?
A: 265

Q: Which results are given for `N#Cc1ccccc1OC[C@@H](O)CNCCNC(=O)Nc1ccc(OCCC[18F])cc1`?
A: Drug uptake [3]: 1.03 % ID/g; Drug uptake [4]: 0.42 % ID/g; Drug uptake [5]: 0.21 % ID/g; Drug uptake [6]: 0.09 % ID/g; Drug uptake [7]: Not Active; Drug uptake [8]: 0.4 % ID/g; Drug uptake [9]: Active; Drug uptake [10]: 1.38 % ID/g; Drug uptake [11]: Active; Drug uptake [12]: 0.63 % ID/g; Ratio [13]: 1.5; Drug uptake [14]: Not Active; Drug uptake [15]: 0.63 % ID/g

Q: What does the source list for `N#Cc1ccccc1OC[C@@H](O)CNCCNC(=O)Nc1ccc(OCCF)cc1`?
A: IC50 [1]: 0.08 nM; Ratio IC50 [2]: 448

Q: With `N#Cc1ccccc1OC[C@@H](O)CNCCNC(=O)Nc1ccc(Br)nc1` as the molecule, how does the IC50 [1] read?
A: 0.05 nM

Q: And the Ratio IC50 [2]?
A: > 1000

Q: For `N#Cc1c(F)cccc1OC[C@@H](O)CNCCNC(=O)Nc1ccc(C(=O)O)cc1`, which IC50 [1] is on record?
A: 21 nM

Q: And the Ratio IC50 [2]?
A: 164

Q: For `N#Cc1ccccc1OC[C@@H](O)CNCCNC(=O)Nc1cccc(OCC[18F])c1`, which Drug metabolism [16] is on record?
A: 83%

Q: And the Drug uptake [17]?
A: Active

Q: And the Drug uptake [3]?
A: 1.14 % ID/g

Q: And the Drug uptake [4]?
A: 0.62 % ID/g

Q: What about the Drug uptake [5] of the same molecule?
A: 0.14 % ID/g

Q: What about the Drug uptake [6] of the same molecule?
A: 0.1 % ID/g

Q: What about the Drug uptake [7] of the same molecule?
A: Not Active

Q: And the Drug uptake [8]?
A: 0.52 % ID/g

Q: And the Drug uptake [9]?
A: Active

Q: And the Drug uptake [10]?
A: 2.01 % ID/g

Q: And the Drug uptake [18]?
A: Active

Q: What about the Drug metabolism [19] of the same molecule?
A: 44%

Q: What about the Drug uptake [11] of the same molecule?
A: Active

Q: And the Drug uptake [12]?
A: 0.16 % ID/g

Q: And the Ratio [13]?
A: 1.27

Q: What about the Drug uptake [14] of the same molecule?
A: Not Active

Q: And the Drug uptake [15]?
A: 0.79 % ID/g

Q: What about the Drug uptake [20] of the same molecule?
A: Active

Q: And the dose excreted at 0.5 h [21]?
A: 76%
